# Biological target: T1, Dros GluCl (Drosophila melanogaster, UniProt Q94900, I27V/K241R)
# T1 construct: Clone pDros GluCl was linearized by digestion with the restriction endonuclease SalI; expressed in transfected cells; host or cells: Xenopus laevis oocytes injected with in vitro transcribed Dros GluCl RNA
# Test: cell-based
# Conditions: for Sensitivity of oocytes injected with Dros GluCl RNA (in words): tested at concentrations of 1 mM or higher; for Reversibility of activated current (in words): after washing drug from the bath, IVMPO4 observed for up to 10 minutes
# Procedure: Clone pDros GluCl was linearized by digestion with the restriction endonuclease SalI. In vitro RNA was synthesized from 0.5 μg of this plasmid in a reaction containing 40 mM Tris-HCl, pH 7.5; 6 mM MgCl2; 2 mM Spermidine; 10 mM NaCl; 10 mM DTT; 0.05 mg/ml Bovine Serum Albumin; 2 units/ul RNasin; 800 μM each ATP, CTP, and UTP; 200 μMGTP; 800 μM m7G(5')ppp(5')G; 5 μCi ^32 P-CTp; and 50 units T3 RNA polymerase in a final volume of 50 μl. The reaction was incubated for 3 hours at 37° C. followed by an additional 15 minutes incubation with 20 units RNase free DNase and extraction with phenol, phenol:chloroform, and chloroform. The RNA was precipitated with 1/10 volume 3M sodium acetate and 2.5 volumes 100% ethanol, stored at -20° C. for 16 hours, washed with 70% ethanol and resuspended in water at a concentration of 1 mg/ml for injection into Xenopus laevis oocytes.
# Xenopus laevis oocytes were prepared and injected using standard methods previously described and known in the art [Arena, J. P., Liu, K. K., Paress, P. S. & Cully, D. F. Mol. Pharmacol. 40, 368-374 (1991); Arena, J. P., Liu, K. K., Paress, P. S., Schaeffer, J. M. & Cully, D. F. Mol. Brain Res. 15, 339-348 (1992)]. Adult female Xenopus laevis were anesthetized with 0.17% tricaine methanesulfonate and the ovaries were surgically removed and placed in a dish consisting of (mM): NaCl 82.5, KCl 2, MgCl2 1, CaCl2 1.8, HEPES 5 adjusted to pH 7.5 with NaOH (OR-2). Ovarian lobes were broken open, rinsed several times, and gently shaken in OR-2 containing 0.2% collagenase (Sigma, Type 1A) for 2-5 hours. When approximately 50% of the follicular layers were removed, Stage V and VI oocytes were selected and placed in media consisting of (mM): NaCl 86, KCl 2, MgCl2 1, CaCl2 1.8, HEPES 5, Na pyruvate 2.5, theophylline 0.5, gentamicin 0.1 adjusted to pH 7.5 with NaOH (ND-96) for 24-48 hours before injection. Oocytes were injected with 50 nl of Dros GluCl RNA (0.01-1 mg/ml). Control oocytes were injected with 50 nl of water. Oocytes were incubated for 2-10 days in ND-96 before recording. Incubations and collagenase digestion were carried out at 18° C.
# Recordings were made at room temperature in standard frog saline consisting of (mM): NaCl 115, KCl 2, MgCl2 1, CaCl2 1.8, HEPES 10, adjusted to pH 7.5 with NaOH. Oocytes were voltage-clamped using a standard two microelectrode amplifier (Dagan 8500 or TEV-200, Minneapolis, Minn.). Pipettes were filled with 3M KCl and had resistances between 0.5-3.0 megaohms. A plexiglass recording chamber (volume 200 μl) was constantly perfused at a rate of 10 ml/min. The recording chamber was connected to ground with a Ag/AgCl electrode. Data were acquired and analyzed using PCLAMP with a TL-1 interface (Axon Instruments, Foster City, Calif.). Membrane current at a holding potential of -80 mV was recorded. The amplitude of drug-sensitive current was determined by subtracting the holding current at -80 mV from the peak current obtained in the presence of drug. Data were filtered at 30 Hz and sampled at 16.6 Hz. Current/voltage relationships (I/V) and reversal potentials (Erev) were determined using a 1-3 sec voltage ramp over the voltage range of -110 to +80 mV. For the ramps, data were filtered at 0.3-3 kHz and sampled at 160 Hz. Current in drug free solution was subtracted from current in the presence of drug to obtain drug-sensitive current/voltage relationships.
# T1 sequence (Q94900 23-456 I27V/K241R/S345N): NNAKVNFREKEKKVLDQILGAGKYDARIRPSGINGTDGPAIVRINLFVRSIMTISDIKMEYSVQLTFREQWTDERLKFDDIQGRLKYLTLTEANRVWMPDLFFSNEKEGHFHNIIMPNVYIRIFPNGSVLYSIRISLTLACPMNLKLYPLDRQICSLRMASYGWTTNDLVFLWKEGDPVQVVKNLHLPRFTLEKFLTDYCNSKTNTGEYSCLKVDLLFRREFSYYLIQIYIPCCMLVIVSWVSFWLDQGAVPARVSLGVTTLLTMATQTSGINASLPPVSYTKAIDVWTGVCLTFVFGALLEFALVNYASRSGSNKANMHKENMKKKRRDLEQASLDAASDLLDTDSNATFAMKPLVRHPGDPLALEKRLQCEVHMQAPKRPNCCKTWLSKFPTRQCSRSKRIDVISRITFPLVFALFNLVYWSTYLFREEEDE
compound,measurement,setting,value
CN[C@H](CC(=O)O)C(=O)O [N-methyl-D-aspartic acid],Sensitivity of oocytes injected with Dros GluCl RNA (in words),,insensitive
C=C(C)[C@H]1CN[C@H](C(=O)O)[C@H]1CC(=O)O [kainate],Sensitivity of oocytes injected with Dros GluCl RNA (in words),,insensitive
picrotoxin,Block of the current elicited with IVMPO4,"500 μM picrotoxin, oocytes expressing Dros GluCl",13%
N[C@@H](CCC(=O)O)C(=O)O [glutamate],EC50,,30 µM
N[C@@H](CC(=O)O)C(=O)O [aspartate],Emax at 1000 µM,read-out: % of maximal activation,8%
NCCCC(=O)O [GABA],Sensitivity of oocytes injected with Dros GluCl RNA (in words),,insensitive
NCC(=O)O [glycine],Sensitivity of oocytes injected with Dros GluCl RNA (in words),,insensitive
C=C(C)C1C(=O)c2c3c(cc4c5c(n1c24)C1(C)C(CCC2C(C)(/C=C/C=C(\C)C(=O)O)C(O)CCC21C)C5)C1=CC(C)(C)OC(C)(C)C1C3O (centres unmarked) [Compound-1],Time for current to fully return to baseline,"after Compound-1, oocytes expressing Dros GluCl",up to 10 minutes
same,Reversibility of activated current (in words),,slowly reversible
same,Activation of membrane current (in words),oocytes expressing Dros GluCl,directly activated membrane current
NCCc1c[nH]cn1 [histamine],Sensitivity of oocytes injected with Dros GluCl RNA (in words),,insensitive
CC[C@H](C)[C@H]1O[C@]2(CC[C@@H]1C)C[C@@H]1C[C@@H](C/C=C(\C)[C@H](O[C@H]3C[C@H](OC)[C@@H](O[C@H]4C[C@H](OC)[C@@H](OP(=O)(O)O)[C@H](C)O4)[C@H](C)O3)[C@@H](C)/C=C/C=C3\CO[C@@H]4[C@H](O)C(C)=C[C@@H](C(=O)O1)[C@]34O)O2 [IVMPO4],"Current activated, % of maximal current","10 nM IVMPO4, oocytes expressing Dros GluCl",20-40%
same,Reversibility of activated current (in words),,irreversible
same,Activation of membrane current (in words),oocytes expressing Dros GluCl,directly activated current
same,Concentration giving maximal activation of current,oocytes expressing Dros GluCl,1 µM
NC(C(=O)O)c1cc(O)no1 (centres unmarked) [ibotenate],Activation of membrane current (in words),oocytes expressing Dros GluCl,reversibly activated
same,Concentration giving maximal activation of current,oocytes expressing Dros GluCl,100 µM
